# Source: patent US20260116946A1, “NOVEL CD200 FUSION PROTEINS” (DUCENTIS BIOTHERAPEUTICS LIMITED, priority 2022, published 2026)
# What was measured:
# human CD200R = biological target: T1, human CD200R (Homo sapiens, UniProt Q8TD46); assay: BIAcore SPR binding of CD200-Fc to human CD200R
# T1 construct: His; purchased Creative Biomart CD200R1-320H
# T1 sequence (Q8TD46 25-348): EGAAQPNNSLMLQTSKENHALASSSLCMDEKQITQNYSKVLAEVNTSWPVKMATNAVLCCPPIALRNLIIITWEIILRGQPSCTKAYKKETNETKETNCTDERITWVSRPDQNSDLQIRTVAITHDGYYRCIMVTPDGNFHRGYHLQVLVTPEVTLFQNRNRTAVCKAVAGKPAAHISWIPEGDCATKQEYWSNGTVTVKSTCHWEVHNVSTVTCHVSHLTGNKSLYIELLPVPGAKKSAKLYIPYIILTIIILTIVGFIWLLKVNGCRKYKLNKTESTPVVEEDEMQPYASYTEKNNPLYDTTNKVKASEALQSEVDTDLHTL
# Text: (§1) BIAcore instrumentation uses an optical method, Surface Plasmon Resonance (SPR), to measure the binding characteristics of two interacting molecules; in this case wild-type CD200-Fc or CD200-Fc mutants binding to the CD200 receptor (CD200R). The technique measures changes in the refractive index of one of the two interacting molecules captured on a chip (sensor) when the second molecule is flowed in solution over the captured partner. In these experiments CD200-Fc was immobilized on the chip (sensor) surface and CD200R was injected in an aqueous buffer over the captured CD200-Fc under continuous flow conditions. Changes in the CD200-Fc refractive index following CD200R binding were measured in real time and the result plotted as response units (RUs) versus time to generate sensorgrams.
# The experiments were performed on a GE Healthcare BIAcore T200. Human, cynomolgus and mouse CD200R proteins were purchased from Creative Biomart (CD200R1-320H, CD200R1-3483C, CD200R1-3280M). All measurements were performed in duplicate.
# For human CD200 constructs: anti-human Fc (GE Healthcare) was covalently immobilized on a BIAcore CM5 sensor chip (Cytiva, BR100530) by amine coupling using a Cytiva kit (BR100839) following the manufacturer's instructions, targeting immobilization of 8,000-11,000 RU. […]
# (§2) For mouse CD200 constructs, muCD200R-Fc (Creative Biomart CD200R1-458M) diluted to 1 μg/mL in running buffer was flowed over the immobilized Anti-Human IgG Fc, with CD200 monomers serially diluted and flowed over captured CD200R. […] Data analysis: experimental sensorgrams were analyzed in BIAevaluation software (GE Healthcare). […] Closeness of fit was determined by algorithms provided by the manufacturer in the BIAevaluation software, and data accepted if the Chi^2 value was less than 10% of Rmax, and the U value was less than or equal to 15.
# cyno CD200R = assay: BIAcore SPR binding of CD200-Fc to cynomolgus CD200R; conditions: 25° C., mean of two runs
# Text: as §1
# The experiments were performed on a GE Healthcare BIAcore T200. […]
# as §2
# U937-CD200R cells = assay: Cytokine release (IL-6 inhibition) assay, LPS stimulated U937-CD200R cells; type: cell-based, human
# Procedure: Cytokine production, including IL-6, from these cells can be induced by stimulation with PMA and then LPS.
# 50,000 U937 cells per well were seeded in 96 well plates and differentiated following incubation for 72 hours with 100 nM PMA. Following differentiation, the PMA containing media was replaced with fresh assay media and incubated for a further 2 hours prior to treatment. CD200-Fc constructs were added with or without Fc block to the cell culture and incubated for 1 hour, then cells were stimulated with 100 ng/ml LPS and incubated for a further 24 hours. Following the final incubation, cell supernatant (diluted 1:10) was collected and assayed for IL-6 secretion by ELISA assay using a commercially available kit.
# Cell line construction, cytokine inhibition testing, and cell binding testing were conducted using similar techniques as in Example 3 above.
# [1] = human CD200R, 25° C., mean of two runs
substance,measurement,setting,value
"ARQ-234: mutated human CD200-Fc fusion protein: CD200 K130Y, I131Y directly fused to IgG4 Fc S228P, M428L, N434S",ka,human CD200R; [1],221600 M⁻¹ s⁻¹
same,kd,human CD200R; [1],0.0004675 s⁻¹
same,fold greater affinity for human CD200 receptor than wild-type CD200-Fc (DS-155),human CD200R; versus DS-155,approx. 84 fold
same,ka,cyno CD200R,159100 M⁻¹ s⁻¹
same,kd,cyno CD200R,0.03997 s⁻¹
same,inhibition of LPS stimulated IL-6 release,"U937-CD200R cells; PMA differentiated U937-CD200R cells, 100 ng/ml LPS, 24 hours, ELISA",able to inhibit LPS stimulated IL-6 secretion in a concentration dependent manner
same,effect of Fc block on inhibition of IL-6 release,U937-CD200R cells; with versus without Fc block reagent,No significant difference in inhibition
